{"source": "patent US6352836B1", "about": "(priority 1997, dated 2002)", "target": "PHIS-PDiTPx2235 (Dirofilaria immitis, UniProt O17433)", "sequence (O17433 whole entry, looked up)": "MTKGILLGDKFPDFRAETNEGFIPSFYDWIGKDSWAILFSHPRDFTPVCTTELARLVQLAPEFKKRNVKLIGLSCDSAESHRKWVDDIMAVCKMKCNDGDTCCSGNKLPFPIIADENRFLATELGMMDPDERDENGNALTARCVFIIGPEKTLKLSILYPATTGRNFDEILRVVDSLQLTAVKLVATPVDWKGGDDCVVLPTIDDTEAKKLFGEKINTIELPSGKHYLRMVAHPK", "type": "biochemical, D. immitis", "settings": "for Percent protection (Mean ± SD): PHIS-PDiTPx2235 0.75 mg/ml, DTT 10 mM", "note": "Like-named read-outs stand apart in the source and are kept apart here.", "data": [{"smiles": "CCN1C(=O)C=CC1=O", "note": "[NEM, N-ethylmaleimide]", "values": [{"measurement": "Percent protection (Mean ± SD)", "setting": "NEM 0.1 mM", "value": "97.3 ± 2.40", "unit": "%"}, {"measurement": "Percent protection (Mean ± SD)", "setting": "NEM 1.0 mM", "value": "76.7 ± 1.13", "unit": "%"}, {"measurement": "Percent protection (Mean ± SD)", "setting": "NEM 2.0 mM", "value": "77.9 ± 1.87", "unit": "%"}, {"measurement": "Percent protection (Mean ± SD)", "setting": "NEM 4.0 mM", "value": "58.4 ± 1.57", "unit": "%"}, {"measurement": "Percent protection (Mean ± SD)", "setting": "NEM 8.0 mM", "value": "21.1 ± 0.33", "unit": "%"}, {"measurement": "Percent protection (Mean ± SD)", "setting": "NEM 16.0 mM", "value": "0.0 ± 0.0", "unit": "%"}, {"measurement": "Percent protection (Mean ± SD)", "setting": "NEM 32.0 mM", "value": "0.0 ± 0.0", "unit": "%"}, {"measurement": "inhibition of H2O2 removal by PHIS-PDiTPx2235", "setting": "inhibition concentration dependent (Table 5)", "value": "prevented PHIS-PDiTPx2235 from removing H2O2"}]}]}
